Data on 27 compounds can be found in the Deep4Chem optical property database.

The nature of the data set: photoluminescence quantum yield (fraction); solvent given as SMILES.

The compound `C(#Cc1nc(C#Cc2cccs2)c(C#Cc2cccs2)c(C#Cc2cccs2)c1C#Cc1cccs1)c1cccs1` returned a photoluminescence quantum yield (in ClCCl) of 0.48.

In the case of `Nc1ccccc1/C=C/C(F)(F)F`, the photoluminescence quantum yield (in C1CCOC1) is 0.77.

Under “in ClCCl”, `CC(C)(C)c1cc(-c2c3cc(c(-c4cc(C(C)(C)C)cc(C(C)(C)C)c4)c4ccc([nH]4)c(-c4ccc([N+](=O)[O-])cc4)c4nc(c(-c5ccc([N+](=O)[O-])cc5)c5ccc2[nH]5)C=C4)N=C3)cc(C(C)(C)C)c1` yielded a photoluminescence quantum yield of 0.0263.

For `COCCOCCOCCOCC(COCCOCCOCCOC)Oc1cc(/C=C/c2ccc(/C=C(\C#N)c3ccc(C(F)(F)F)cc3)cc2)c(OC(COCCOCCOCCOC)COCCOCCOCCOC)cc1/C=C/c1ccc(/C=C(\C#N)c2ccc(C(F)(F)F)cc2)cc1`, where the note is “in ClCCl”, the photoluminescence quantum yield worked out at 0.55.

Take `CN(C)c1ccc(-c2cc(-c3cccs3)nc(-c3ccccc3)n2)cc1`: the photoluminescence quantum yield (in ClC(Cl)Cl) stood at 0.46.

Under “in O=P(c1ccccc1)(c1ccccc1)c1ccccc1Oc1ccccc1P(=O)(c1ccccc1)c1ccccc1”, `CC1(C)c2ccccc2N(c2ccccc2)c2ccc(-c3ccc(S(=O)(=O)c4ccc(-c5ccc6c(c5)C(C)(C)c5ccccc5N6c5ccccc5)cc4)cc3)cc21` showed a photoluminescence quantum yield of 0.87.

On to `NS(=O)(=O)c1ccc(N2N=C(c3ccc(O)cc3)CC2c2ccc(Cl)cc2)cc1` (configuration not stated), for which the photoluminescence quantum yield runs as follows: (in C1CCOC1) 0.68; (in C1COCCO1) 0.72; (in CC#N) 0.65; (in CC(C)O) 0.53; (in CCO) 0.44; (in CCOC(C)=O) 0.72. The photoluminescence quantum yield (in CN(C)C=O) stood at 0.71, the photoluminescence quantum yield (in CO) came out at 0.36, the photoluminescence quantum yield (in CS(C)=O) is 0.75 and the photoluminescence quantum yield (in O) amounted to 0.56.

As for `COc1ccc([C@@H]2C[C@](O)(c3ccccn3)C[C@](O)(c3ccccn3)[C@H]2C(=O)c2ccc(N(c3ccccc3)c3ccccc3)cc2)cc1`, the photoluminescence quantum yield is, setting by setting: (in C1CCOC1) 0.5; (in CC#N) 0.02; (in CCO) 0.01; (in CCOC(C)=O) 0.42; (in CN(C)C=O) 0.03; (in ClCCl) 0.26. Further, the photoluminescence quantum yield (in c1ccccc1) was determined as 0.93.

With `C[Si](C)(C)c1cccc2ccccc12`, the photoluminescence quantum yield (in C1CCCCC1) is 0.3.

On to `Cc1cc2c(o1)=CC1=C(C(F)(F)F)c3cc4oc(C)cc4n3[B-](F)(F)[N+]=21`, for which the photoluminescence quantum yield stood at 0.92 (in C1CCOC1); 0.84 (in CC#N); 0.87 (in CCO); 0.7 (in CO); 0.97 (in Cc1ccccc1); 0.98 (in ClC(Cl)Cl).

Take `c1ccc([B-]2(c3ccccc3)Oc3ccc4ccccc4c3-c3c4ccccc4cn[n+]32)cc1`: the photoluminescence quantum yield (in Cc1ccccc1) is 0.15.

Consider `O=C1CCCC2=C1C(c1cccc(Cl)c1)c1c(c3ccccc3oc1=O)N2` (configuration not stated), for which the photoluminescence quantum yield (in CS(C)=O) was 0.6.

Consider `O=[N+]([O-])c1ccc([N+]2=Cc3ccc4c5c(ccc4c3O[B-]2(c2ccccc2)c2ccccc2)C=[N+](c2ccc([N+](=O)[O-])cc2)[B-](c2ccccc2)(c2ccccc2)O5)cc1`, for which the photoluminescence quantum yield runs as follows: (in Cc1ccccc1) 0.63; (in ClCCl) 0.48.

`O=c1oc2ccccc2cc1/C=C/c1ccccc1` registered a photoluminescence quantum yield (in CC#N) of 0.61.

Compound `CCCN1/C(=C\c2c(-c3ccc(N(C)C)cc3)c(=O)c2=O)C=Cc2ccccc21` returned a photoluminescence quantum yield (in C1CCCCC1) of 0.0262, a photoluminescence quantum yield (in Cc1ccccc1) of 0.0201 and a photoluminescence quantum yield (in ClCCl) of 0.001.

For `CCn1c2ccccc2c2cc(C#Cc3cc(C#Cc4ccc5c(c4)c4ccccc4n5CC)ncn3)ccc21`, the photoluminescence quantum yield runs as follows: (in C1CCOC1) 0.74; (in CCOC(C)=O) 0.83; (in CN(C)C=O) 0.68; (in Cc1ccccc1) 0.84; (in ClCCl) 0.72.

Turning to `CC[N+]1=C(/C=C/C=C/C=C/C=C2/N(CCCCCC(=O)O)c3ccc(S(=O)(=O)[O-])cc3C2(C)C)C(C)(C)c2cc(S(=O)(=O)[O-])ccc21`, the photoluminescence quantum yield runs as follows: (in CO) 0.52; (in O) 0.28.

The compound `Nc1ccc(N2C(=O)c3ccc4c5ccc6c7c(ccc(c8ccc(c3c48)C2=O)c75)C(=O)N(c2ccc(N)cc2)C6=O)cc1` registered a photoluminescence quantum yield (in CN(C)C=O) of 0.2.

With `CC(C)(C)C1Nc2ccccc2C(=O)N1Cc1ccccc1` (configuration not stated), the photoluminescence quantum yield by setting is: (in CC#N) 0.09; (in CO) 0.034; (in ClC(Cl)Cl) 0.055; (in c1ccccc1) 0.08.

Take `FC(F)(F)c1ccc(C#Cc2ncc(-c3ccccc3)o2)cc1`: the photoluminescence quantum yield (in ClCCl) turned out to be 0.24.

Consider `COC(=O)c1cc(=O)n(C)c2cc(-c3cc4c5c(c3)CCCN5CCC4)sc12`, for which the photoluminescence quantum yield was 0.02 (in CC#N); 0.09 (in CCO); 0.1 (in CN(C)C=O); 0.3 (in CO); 0.17 (in CS(C)=O); 0.48 (in ClC(Cl)Cl). For the same compound, the photoluminescence quantum yield (in ClCCl) amounted to 0.25.

Regarding `Cn1nc(-c2ccccc2)c2n[nH]nc2/c1=N\c1ccccn1`, the photoluminescence quantum yield is 0.05 (in CC#N), 0.06 (in CCO) and 0.07 (in Cc1ccccc1).

As to `CC(=O)c1c2c(cc3ccc(N(C)C)cc13)CCC2`, the photoluminescence quantum yield is 0.45 (in C1CCCCC1); 0.75 (in C1CCOC1); 0.46 (in C1COCCO1); 0.99 (in CC#N); 0.05 (in CCO); 0.85 (in CS(C)=O). This compound showed a photoluminescence quantum yield (in Cc1ccccc1) of 0.62, a photoluminescence quantum yield (in ClC(Cl)Cl) of 0.77 and a photoluminescence quantum yield (in ClCCl) of 0.99.

With `CC1(C)c2ccccc2N(c2ccc3c(ccc4nc5ccc6cc(N7c8ccccc8C(C)(C)c8ccccc87)ccc6c5nc43)c2)c2ccccc21`, the photoluminescence quantum yield is, setting by setting: (in C1CCCCC1) 0.16; (in C1CCOC1) 0.07; (in Cc1ccccc1) 0.11; (in ClCCl) 0.05.

`c1ccc(-[c+]2c3ccccc3sc3ccccc32)cc1` had a photoluminescence quantum yield (in CC#N) of 0.02.

As to `C1=Cc2ccc(N(c3ccccc3)c3cccc4ccccc34)cc2C2(c3cc(N(c4ccccc4)c4cccc5ccccc45)ccc31)c1ccccc1-c1ccccc12`, the photoluminescence quantum yield (in ClCCl) turned out to be 0.58.

Under “in ClCCl”, `COc1ccc2c(c1)-c1cc3c(cc1[Si]2(c1ccccc1)c1ccccc1)-c1ccccc1[Si]3(c1ccccc1)c1ccccc1` gave a photoluminescence quantum yield of 0.4.
